In test [1] the target is human CB1 receptors (Homo sapiens (Human), UniProt P21554). Kind of test: cAMP assay, CHO cells expressing human CB1 receptors. In kind it is cell-based. Particulars: functional cAMP assay, CHO cells expressing human CB1; read-out: EC50 CB1 human. The method in brief:
(§1)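 Transfected CHO cells were preincubated in Krebs Ringer bicarbonate buffer with 1 mM IBMX for 30 min at 30 °C, then exposed to compound for 30 min at 30 °C. cAMP was measured by time-resolved FRET (730/645 nm) against a standard curve spanning 10 μM to 0.13 nM. EC50 values derived from concentration–response data.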
Background: cAMP levels reflect the balance of adenylyl cyclase and phosphodiesterase activity.

Test [2] addresses human CB2 receptors (Homo sapiens (Human), UniProt P34972). Kind of test: cAMP assay, CHO cells expressing human CB2 receptors. In kind it is cell-based. Particulars: functional cAMP assay, CHO cells expressing human CB2; read-out: EC50 CB2 human. The method in brief:
as §1

Chain of human CB1 receptors (P21554 whole entry): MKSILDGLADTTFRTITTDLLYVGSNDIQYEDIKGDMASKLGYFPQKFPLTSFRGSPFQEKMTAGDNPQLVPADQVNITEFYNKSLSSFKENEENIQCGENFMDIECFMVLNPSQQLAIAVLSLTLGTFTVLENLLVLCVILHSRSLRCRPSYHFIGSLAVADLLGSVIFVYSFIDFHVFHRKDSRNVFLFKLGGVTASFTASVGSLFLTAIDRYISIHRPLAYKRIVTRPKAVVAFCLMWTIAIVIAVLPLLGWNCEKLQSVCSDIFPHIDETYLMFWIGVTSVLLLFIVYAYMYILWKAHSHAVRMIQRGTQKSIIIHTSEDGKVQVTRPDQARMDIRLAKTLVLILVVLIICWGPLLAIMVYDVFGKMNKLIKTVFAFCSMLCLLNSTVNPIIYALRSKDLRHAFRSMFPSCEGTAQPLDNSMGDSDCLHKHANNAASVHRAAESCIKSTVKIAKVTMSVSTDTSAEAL
Chain of human CB2 receptors (P34972 whole entry): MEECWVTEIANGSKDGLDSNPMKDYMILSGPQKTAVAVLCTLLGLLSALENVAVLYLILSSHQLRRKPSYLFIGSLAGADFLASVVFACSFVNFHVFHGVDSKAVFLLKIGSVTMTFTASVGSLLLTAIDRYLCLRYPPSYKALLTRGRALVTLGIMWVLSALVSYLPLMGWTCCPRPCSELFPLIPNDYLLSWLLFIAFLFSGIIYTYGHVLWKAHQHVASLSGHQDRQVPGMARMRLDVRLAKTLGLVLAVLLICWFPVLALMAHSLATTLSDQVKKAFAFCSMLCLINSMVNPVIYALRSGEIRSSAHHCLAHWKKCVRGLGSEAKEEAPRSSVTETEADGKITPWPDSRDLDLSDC

For the compound `CC(C)(C)c1nc(-c2cc(OCC(F)(F)F)c(S(C)(=O)=O)cn2)no1` [Example 67, 5-tert-butyl-3-[5-methylsulfonyl-4-(2,2,2-trifluoroethoxy)pyridin-2-yl]-1,2,4-oxadiazole], the EC50 – broadly, the concentration needed to bring the measured effect to its halfway point – was > 10000 nM in test [1] and 434 nM in test [2].

Consider `CCC1(C)N=C(c2cc(OCC(F)(F)F)c(C3CC3)cn2)NC1=O` (centres unmarked) [Example 68, 2-[5-cyclopropyl-4-(2,2,2-trifluoroethoxy)pyridin-2-yl]-4-ethyl-4-methyl-1H-imidazol-5-one], for which the EC50 in test [1] is > 10000 nM; in test [2], 72.6 nM.

Take `CC(C)CC1(C)N=C(c2cc(OCC(F)(F)F)c(C3CC3)cn2)NC1=O` (centres unmarked) [Example 69, 2-[5-cyclopropyl-4-(2,2,2-trifluoroethoxy)pyridin-2-yl]-4-methyl-4-(2-methylpropyl)-1H-imidazol-5-one]: the values for the EC50 in test [1] and in test [2] were > 10000 nM and 9 nM, respectively.

Consider `CC(C)(C)c1nc(-c2cc(OCC(F)(F)F)c(Cl)cn2)no1` [Example 70, 5-tert-butyl-3-[5-chloro-4-(2,2,2-trifluoroethoxy)pyridin-2-yl]-1,2,4-oxadiazole], for which the EC50 in test [1] was > 10000 nM; in test [2], 5.7 nM.

For `FC(F)(F)COc1cc(-c2noc(C3CC3)n2)ncc1Cl` [Example 71, 3-[5-chloro-4-(2,2,2-trifluoroethoxy)pyridin-2-yl]-5-cyclopropyl-1,2,4-oxadiazole], the EC50 was > 10000 nM in test [1] and 280 nM in test [2].

On to `FC(F)(F)COc1cc(-c2noc(C3CC3)n2)ncc1C1CC1` [Example 72, 5-cyclopropyl-3-[5-cyclopropyl-4-(2,2,2-trifluoroethoxy)pyridin-2-yl]-1,2,4-oxadiazole], for which the EC50 in test [1] was > 10000 nM; in test [2], 45.4 nM.

Regarding `CC(C)(C)c1nc(-c2cc(N3CCC(O)C3)c(C3CC3)cn2)no1` (centres unmarked) [Example 73, 1-[2-(5-tert-butyl-1,2,4-oxadiazol-3-yl)-5-cyclopropylpyridin-4-yl]pyrrolidin-3-ol], the EC50 in test [1] is > 10000 nM; in test [2] it was 57.2 nM.

Regarding `CC(C)(C)c1nc(-c2cc(N3CC(F)(F)C(F)(F)C3)c(C3CC3)cn2)no1` [Example 74, 5-tert-butyl-3-[5-cyclopropyl-4-(3,3,4,4-tetrafluoropyrrolidin-1-yl)pyridin-2-yl]-1,2,4-oxadiazole], the EC50 is > 10000 nM in test [1] and 4.7 nM in test [2].

For `CC(C)(C)c1nc(-c2cc(Oc3ccc(S(C)(=O)=O)cc3)c(C3CC3)cn2)no1` [Example 75, 5-tert-butyl-3-[5-cyclopropyl-4-(4-methylsulfonylphenoxy)pyridin-2-yl]-1,2,4-oxadiazole], the results for the EC50 in test [1] and in test [2] were > 10000 nM and 288 nM, respectively.

As for `CC(C)(C)c1nc(-c2cc(N3CCC(F)(F)C3)c(C3CC3)cn2)no1` [Example 77, 5-tert-butyl-3-[5-cyclopropyl-4-(3,3-difluoropyrrolidin-1-yl)pyridin-2-yl]-1,2,4-oxadiazole], the EC50 was > 10000 nM in test [1] and 2.1 nM in test [2].

As to `CC(C)(C)c1nc(-c2cc(N3CCOCC3)c(C3CC3)cn2)no1` [Example 78, 4-[2-(5-tert-butyl-1,2,4-oxadiazol-3-yl)-5-cyclopropylpyridin-4-yl]morpholine], the concentration for a half-maximal effect (EC50) in test [1] was > 10000 nM; in test [2], 42.2 nM.

Take `CC(C)(C)c1nc(-c2cc(N3CCCC3)c(C3CC3)cn2)no1` [Example 79, 5-tert-butyl-3-(5-cyclopropyl-4-pyrrolidin-1-ylpyridin-2-yl)-1,2,4-oxadiazole]: the EC50 in test [1] is > 10000 nM; in test [2] it was 9 nM.

For `CC(C)(C)c1nc(-c2cc(S(=O)(=O)C3CC3)c(C3CC3)cn2)no1` [Example 80, 5-tert-butyl-3-(5-cyclopropyl-4-cyclopropylsulfonylpyridin-2-yl)-1,2,4-oxadiazole], the EC50 in test [1] is > 10000 nM; in test [2], 47.5 nM.

The values above are taken from patent US10308659B2, “Pyridine derivatives” (Hoffmann-La Roche Inc., priority 2013, dated 2019).
